From PubChem BioAssay (NCI)
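Here, GI50 denotes the concentration required for 50% inhibition of growth. TGI: total growth inhibition.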

How the values were obtained:
Assay in all cases: growth of human tumour cells (NCI), 384-well format
[1] = tested on: SR leukemia
[2] = tested on: U251 glioblastoma
[3] = tested on: UACC-62 melanoma
[4] = tested on: OVCAR-5 ovarian
[5] = tested on: A498 renal
[6] = tested on: PC-3 prostate
[7] = tested on: KM12 colon
[8] = tested on: HCT-15 colon
[9] = tested on: NCI/ADR-RES ovarian
[10] = tested on: MALME-3M melanoma
[11] = tested on: ACHN renal
[12] = tested on: A549 NSCLC
[13] = tested on: DU-145 prostate
[14] = tested on: SW-620 colon
[15] = tested on: MDA-MB-435 melanoma
[16] = tested on: TK-10 renal
[17] = tested on: RXF 393 renal
[18] = tested on: CAKI-1 renal
[19] = tested on: HOP-62 NSCLC
[20] = tested on: NCI-H23 lung
[21] = tested on: COLO 205 colon
[22] = tested on: HOP-92 NSCLC
[23] = tested on: IGROV1 ovarian
[24] = tested on: HS 578T breast
[25] = tested on: SK-MEL-5 melanoma
[26] = tested on: MDA-MB-468 breast
[27] = tested on: MCF7 breast
[28] = tested on: HL-60(TB) leukemia

## O=C(O)C(=O)CBr
[1]
  TGI: > 100 µM
[2]
  GI50: > 100 µM
  TGI: > 100 µM
[3]
  GI50: > 100 µM
  TGI: > 100 µM
[4]
  GI50: > 100 µM
  TGI: > 100 µM
[5]
  GI50: > 100 µM
  TGI: > 100 µM
[6]
  GI50: > 100 µM
  TGI: > 100 µM
[7]
  GI50: > 100 µM
  TGI: > 100 µM
[8]
  GI50: > 100 µM
  TGI: > 100 µM
[9]
  GI50: > 100 µM
  TGI: > 100 µM
[10]
  GI50: > 100 µM
  TGI: > 100 µM
[11]
  GI50: > 100 µM
  TGI: > 100 µM
[12]
  GI50: > 100 µM
  TGI: > 100 µM
[13]
  GI50: > 100 µM
  TGI: > 100 µM
[14]
  GI50: > 100 µM
  TGI: > 100 µM
[15]
  GI50: > 100 µM
  TGI: > 100 µM
[16]
  GI50: > 100 µM
  TGI: > 100 µM
[17]
  GI50: 22.5 µM
  TGI: 57.1 µM
[18]
  GI50: > 100 µM
  TGI: > 100 µM
[19]
  GI50: 34.7 µM
  TGI: > 100 µM
[20]
  GI50: 55.7 µM
  TGI: > 100 µM
[21]
  GI50: > 100 µM
  TGI: > 100 µM
[22]
  GI50: > 100 µM
  TGI: > 100 µM
[23]
  GI50: > 100 µM
  TGI: > 100 µM
[24]
  GI50: > 100 µM
  TGI: > 100 µM
[25]
  GI50: > 100 µM
  TGI: > 100 µM
[26]
  GI50: 24.7 µM
  TGI: 56.8 µM
[27]
  GI50: > 100 µM
  TGI: > 100 µM
[28]
  GI50: 23.9 µM
  TGI: 45.3 µM
